Source: patent publication US9738668B2
“Also recorded” adds a separate entry of the source.

Assays:
[1] = Pharmacokinetic study and BBB penetration, LC-MS/MS of plasma and brain; format: in vivo, C57BL6 mice; details: mice, intravenous 10 mg/kg
Experimental: Using the validated LCMS/MS method, blood and brain levels of 4, 8, and 15 were measured in male and female C57BL6 mice (8-10 week-old, weighing approximately 25-30 grams). The mice were housed in a room with controlled temperature (23±3° C.) and moisture level (55±15% relative humidity) and exposed to a controlled 12 hour light/12 hour dark cycle. They were allowed to access to food and water ad libitum. Mice were fasted for 6 hours with free access to water prior to the pharmacokinetic study. To determine the time course of compounds 4, 8, and 15 action in the brain, the plasma pharmacokinetics and BBB penetration capability of the inhibitors were investigated. In these experiments, compounds 4, 8, and 15 were administered to mice by intravenous injection at a dosage of 10 mg/kg. Blood and brain samples were collected from mouse at each time point (2, 5, 10, 30, 60, 120, 240, 360, 720, 1440, and 2880 minutes), a total of 11 time points. For plasma measurements, blood (approximately 500-800 μl) was collected via cardiac-puncture into tubes containing sodium heparin anti-coagulant. Plasma was separated via centrifugation (4° C., 3500 rpm, 10 minutes) and stored in −80° C. freezer. For qualitative confirmations of these compounds in CSF, samples were collected at 2 time points (240 and 1440 min) from five animals at each time point. At the time of measurement, frozen plasma samples were thawed at room temperature and vortexed thoroughly. The following quantities were estimated using non-compartmental calculations performed with WINNONLIN 5.2 (Pharsight, Sunnyvale, Calif.): the area under the plasma concentration-time curve during the period of observation (AUC0-τ); the area under the plasma concentration-time curve from zero to infinity (AUC0-∞); the maximum plasma concentration (Cmax); the time to reach Cmax (Tmax); and the half-life (t1/2).
The LC-MS/MS method described above was used for the determination of 4, 8 and 15 in plasma, brain, and CSF for pharmacokinetic study. Based on the initial concentration data, the pharmacokinetic parameters including the area under the plasma concentration-time curve during the period of observation (AUC0-t), the area under the plasma concentration-time curve from zero to infinity (AUC0-∞) the maximum plasma concentration (Cmax) the time to reach Cmax (Tmax) and the half-life (t1/2) are shown in Table 8.

[2] = system: hippocampal long-term potentiation; test: Hippocampal long-term potentiation (LTP) in slices from treated mice; format: in vivo; details: hippocampal slices from treated mAPP mice
Experimental: LTP was induced by theta-burst stimulation (TBS) 20 minutes after baseline recordings in hippocampal slices from Non-Tg mice treated with vehicle (n=9 slices from 3 mice), Non-Tg mice treated with Compound 8 (n=9 slices from 3 mice), mAPP mice treated with vehicle (n=8 slices from 3 mice), and mAPP mice treated with Compound 8 (n=8 slices from 3 mice). LTP is expressed as percentage potentiation of baseline (100%)(FIG. 5A).
LTP is expressed as percentage potentiation of baseline (100%)(FIG. 7A).
Synaptic failure in AD is largely reflected by impaired long-term synaptic plasticity in terms of long-term potentiation (LTP). […] Representative field excitatory post-synaptic potentials (fEPSP) waveforms are provided in FIGS. 5A and 7A and the residual potentiation from fEPSP slopes occurring over the last 5 minutes of LTP recording are provided in FIGS. 5B and 7B.

ABAD = format: biochemical
Experimental: Before the assay, all the assay components except SAAC were pre-incubated for 5 minutes, and the reaction started with the addition of SAAC into the reaction mix. The reaction was carried out for a total 6 minutes at room temperature under steady-state conditions, and the decrease of NADH absorbance at 340 nm was determined every 10 seconds. Kinetic data were analyzed by PRISM (Scitech, San Diego, Calif.) to determine IC50 values and Ki. One unit of enzyme activity was defined as that which converted 1.0 μmol of substrate to product per minute.

| SMILES | t1/2 ([1]; Brain) [h] | t1/2 ([1]; Plasma) [h] | hippocampal long-term potentiation (LTP) [2] | inhibitory effect on SAAC reduction by ABAD (ABAD) |
| --- | --- | --- | --- | --- |
| COc1ccc2nc(N[C@@H](c3ccc(O)cc3)P(=O)(OC)OC)sc2c1 (racemic) [Compound 8, Dimethyl ((4-hydroxyphenyl)((6-methoxybenzo[d]thiazol-2-yl)amino)methyl)phosphonate] | 8.3 | 5.5 | impairments were diminished; also recorded: protective effects | – |
| COC(=O)c1cc([C@H](Nc2nc3ccc(OC)cc3s2)P(=O)(OC)OC)ccc1O [Compound 4, Methyl 5-((dimethoxyphosphoryl)((6-methoxybenzo[d]thiazol-2-yl)amino)methyl)-2-hydroxybenzoate] | 17.1 | 6.2 | impairments were diminished; also recorded: protective effects | modest inhibitory effect |
